# What was measured:
# [1] = target: T1, GST-ALK5 (TGF-beta receptor kinase) (Homo sapiens, UniProt P36897); assay: In-vitro (enzyme) kinase flashplate assay: GST-ALK5 phosphorylation of GST-SMAD2 with 33P-ATP; type: biochemical; conditions: 384-well flashplate kinase assay, GST-ALK5 / GST-SMAD2, 33P-ATP, 30° C., 45 min; read-out: TβR activity (Example 50)
# T1 sequence (P36897 34-503): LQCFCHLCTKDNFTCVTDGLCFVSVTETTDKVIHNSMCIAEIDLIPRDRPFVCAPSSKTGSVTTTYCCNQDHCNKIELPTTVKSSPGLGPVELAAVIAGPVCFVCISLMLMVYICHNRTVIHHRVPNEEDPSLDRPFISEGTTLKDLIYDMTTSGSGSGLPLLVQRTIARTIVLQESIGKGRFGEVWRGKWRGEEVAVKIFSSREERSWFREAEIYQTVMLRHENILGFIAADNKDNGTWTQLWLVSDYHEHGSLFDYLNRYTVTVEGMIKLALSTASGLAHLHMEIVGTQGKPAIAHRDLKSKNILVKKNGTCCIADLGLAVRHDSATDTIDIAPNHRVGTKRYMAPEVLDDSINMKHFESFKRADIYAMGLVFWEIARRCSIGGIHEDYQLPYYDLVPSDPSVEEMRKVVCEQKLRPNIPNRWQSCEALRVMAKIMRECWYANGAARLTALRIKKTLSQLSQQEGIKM
# Method: In-vitro (Enzyme) Assay for Determination of the Efficacy of Inhibitors of the Inhibition of TGF-Beta-Mediated Effects
# The kinase assay was carried out as 384-well flashplate assay. 31.2 nM of GST-ALK5, 439 nM of GST-SMAD2 and 3 mM of ATP (with 0.3 μCi of ^33P-ATP/well) were incubated in a total volume of 35 μl (20 mM of HEPES, 10 mM of MgCl2, 5 mM of MnCl2, 1 mM of DTT, 0.1% of BSA, pH 7.4) without or with test substance (5-10 concentrations) at 30° C. for 45 min. The reaction was stopped using 25 μl of 200 mM EDTA solution, filtered with suction at room temperature after 30 min, and the wells were washed with 3 times 100 μl of 0.9% NaCl solution. Radioactivity was measured in the TopCount. The IC50 values were calculated using RS1.
# [2] = system: TGF-beta-induced phosphorylation of Smad2 (Ser465/467) and Smad3 (Ser423/425) in Mv1-Lu cells; assay: Inhibition of Smad2/3 phosphorylation in Mv1Lu cells (PathScan Phospho-Smad2 ELISA); type: cell-based, mink Mustela vison; conditions: Neogale vison, Mv1-Lu cells, TGF-beta 1 5 ng/ml, Phospho-Smad2/3 ELISA, read-out: TβR activity (Example 51)
# Method: Inhibition of Smad2/3 Phosphorylation in Mv1 Lu Cells by TGF-Beta Receptor I Kinase Inhibitors
# This assay was used to determine the inhibitory potency of compounds on TGF-beta-induced phosphorylation of Smad2 (Ser465/467) and Smad3 (Ser423/425). Mv1-Lu cells (lung epithelial cell line from mink Mustela vison; ATCC number: CCL-64) were seeded in DMEM (Invitrogen) supplemented with 10% fetal bovine serum (Pan Biotech) at a defined cell density in 24-well or 96-well plates (24-well plate: 1.5×10^5 cells per well; 96-well plate: 4×10^4 cells per well). Cell cultures were incubated in DMEM at 37° C. and 10% CO2. On the next day, the medium was replaced and cells were serum-starved for 16-20 hours. The following day, serial dilutions of compounds were added to the wells, pre-incubated for 1.5 hrs before recombinant TGF-beta 1 ligand (final concentration 5 ng/ml; R&D systems) was added. After one hour of ligand stimulation, lysates were prepared and analyzed using an enzyme-linked immunosorbent assay kit (PathScan Phospho-Smad2 Kit, Cell Signaling Technologies). The ELISA detects phosphorylated Smad2 as well as phosphorylated Smad3 with the phospho-specific antibody. TGF-beta stimulated cells and unstimulated cells served as positive and negative controls (100% and background control). The concentration of the vehicle DMSO was kept constant at 0.2% (v/v) in all wells. Dose-response relationships were fitted using curve fitting algorithms of the RS1 statistics software package (Brooks Automation Inc. RS/1- Statistical Tools Handbook. Release 6.2) to determine the concentration at which half-maximal inhibition (IC50) of Smad2/3 phosphorylation was achieved.
SMILES,IC50 [1] [nM],IC50 [2] [nM]
"Fc1ccccc1-c1cc(-c2ccc(OCCN3CCOCC3)c3cnccc23)c2cccnc2n1 [Compound 25, 2-(2-fluoro-phenyl)-4-[8-(2-morpholin-4-yl-ethoxy)-isoquinolin-5-yl]-[1,8]naphthyridine]",< 1000,< 1000
"Fc1ccc(Cl)cc1-c1cc(-c2cncc3ncccc23)c2cccnc2n1 [Compound 37, 5-[2-(5-Chloro-2-fluoro-phenyl)-[1,8]naphthyridin-4-yl]-[1,7]naphthyridine]",< 1000,1000 to 10000
"Nc1ncnc2c(-c3cc(-c4ccccc4F)nc4ncccc34)cccc12 [Compound 15, 8-[2-(2-Fluoro-phenyl)-[1,8]naphthyridin-4-yl]-quinazolin-4-ylamine]",–,1000 to 10000
"O=c1c2cnccc2c(-c2cc(-c3cc(Cl)ccc3F)nc3ncccc23)cn1CCO [Compound 68, 4-[2-(5-Chloro-2-fluoro-phenyl)-[1,8]naphthyridin-4-yl]-2-(2-hydroxy-ethyl)-2H-[2,7]naphthyridin-1-one]",< 1000,< 1000
"O=c1c2cnccc2c(-c2cc(-c3ccccc3F)nc3ncccc23)cn1CCO [Compound 67, 4-[2-(2-Fluoro-phenyl)-[1,8]naphthyridin-4-yl]-2-(2-hydroxy-ethyl)-2H-[2,7]naphthyridin-1-one]",< 1000,1000 to 10000
"Nc1cc2c(-c3cc(-c4cc(Cl)ccc4F)nc4ncccc34)cccc2cn1 [Compound 49, 5-[2-(5-Chloro-2-fluoro-phenyl)-[1,8]naphthyridin-4-yl]-isoquinolin-3-ylamine]",–,> 10000
"OCCOc1ccc(-c2cc(-c3ccccc3F)nc3ncccc23)c2ccncc12 [Compound 39, 2-{5-[2-(2-Fluoro-phenyl)-[1,8]naphthyridin-4-yl]-isoquinolin-8-yloxy}-ethanol]",–,< 1000
"Nc1ccc(-c2cc(-c3ccccc3F)nc3ncccc23)c2ccncc12 [Compound 41, 5-[2-(2-Fluoro-phenyl)-[1,8]naphthyridin-4-yl]-isoquinolin-8-ylamine]",–,< 1000
"Nc1ncnc2c(-c3cc(-c4ccccc4F)nc4ncccc34)nccc12 [Compound 36, 8-[2-(2-Fluoro-phenyl)-[1,8]naphthyridin-4-yl]-pyrido[3,4-d]pyrimidin-4-ylamine]",–,> 10000
"COCCn1cc(-c2cc(-c3cc(Cl)ccc3F)nc3ncccc23)c2ccncc21 [Compound 5, 2-(5-Chloro-2-fluoro-phenyl)-4-[1-(2-methoxy-ethyl)-1H-pyrrolo[2,3-c]pyridin-3-yl]-[1,8]naphthyridine]",–,< 1000
"O=[N+]([O-])c1ccc(-c2cc(-c3ccccc3F)nc3ncccc23)c2ccncc12 [Compound 16, 2-(2-Fluoro-phenyl)-4-(8-nitro-isoquinolin-5-yl)-[1,8]naphthyridine]",–,< 1000

# Continued, values first:
IC50 [1] [nM],IC50 [2] [nM],SMILES
< 1000,< 1000,"O=c1c2cnccc2c(-c2cc(-c3cc(Cl)ccc3F)nc3ncccc23)cn1CCN1CCCC1 [Compound 91, 4-[2-(5-Chloro-2-fluoro-phenyl)-[1,8]naphthyridin-4-yl]-2-(2-pyrrolidin-1-yl-ethyl)-2H-[2,7]naphthyridin-1-one]"
< 1000,–,"CC(=O)Nc1nccc2c(-c3cc(-c4ccccc4F)nc4ncccc34)nccc12 [Compound 69, N-{5-[2-(2-Fluoro-phenyl)-[1,8]naphthyridin-4-yl]-[2,6]naphthyridin-1-yl}-acetamide]"
< 1000,< 1000,"Cc1occc1-c1cc(-c2c[nH]c3cnccc23)c2cccnc2n1 [Compound 108, 2-(2-Methyl-furan-3-yl)-4-(1H-pyrrolo[2,3-c]pyridin-3-yl)-[1,8]naphthyridine]"
< 1000,< 1000,"Nc1nccc2c(-c3cc(-c4ccccc4)nc4ncccc34)nccc12 [Compound 87, 5-(2-Phenyl-[1,8]naphthyridin-4-yl)-[2,6]naphthyridin-1-ylamine]"
< 1000,1000 to 10000,"Fc1ccccc1-c1cc(-c2cnc(OCCN3CCOCC3)c3cnccc23)c2cccnc2n1 [Compound 78, 2-(2-Fluoro-phenyl)-4-[1-(2-morpholin-4-yl-ethoxy)-[2,7]naphthyridin-4-yl]-[1,8]naphthyridine]"

# — patent publication US8791113B2, “2,4-diaryl-substituted [1,8] naphthyridines as kinase inhibitors for use against cancer” (Merck Patent GmbH, priority 2010, dated 2014)
